# Laboratory results: US20230286960A1, “ALLOSTERIC CHROMENONE INHIBITORS OF PHOSPHOINOSITIDE 3-KINASE (PI3K) FOR THE TREATMENT OF DISEASE” (Petra Pharma Corporation, priority 2020, published 2023)
# pIC50: −log10 of the molar value.
# Molecular target: human full length PIK3CA H1047R mutant (p110α/p85α) (Homo sapiens (Human), UniProt P42336, H1047R)
# Assay: PI3K-alpha kinase (PIK3CA) activity, H1047R mutant, Transcreener ADP2 FI assay
# Settings: PI3K-α (PIK3CA) biochemical
# Experimental: (§1) PI3K-Alpha Kinase (PIK3CA) Activity, Wild-Type and H1047R Mutant and Determining IC50 Values for Inhibitors
# (§2) Recombinant, catalytically active human full length PIK3KA Wild-type and H1047R mutant were purchased as 1:1 complex of N-terminal 6× his tagged p110 ? (catalytic) and untagged p85 ? (regulatory subunit) from EMD Millipore Sigma (cat. no. 14-602M and 14-792M, respectively). The enzyme stocks were diluted to 5× stocks in buffer (20 mM HEPES pH 7.4, 100 mM NaCl, 0.5 mM EGTA, 0.01% triton-x-100) just before use. PIP2diC8 (Avanti Polar Lipids Inc., cat. no. 850185) or phosphoinositol-4,5-bisphosphate with phosphoserine (PIP2:PS) membrane (Thermo Fisher Scientific, cat. no. PV5100) was used as lipid substrates. PIP2diC8 lyophilized powder and PIP2:PS (1:19) membrane stock (1 mM in PIP2) were separately dissolved in milliQ water to a concentration of 250 uM and stored in −20° C. 10 mM stocks of compounds were serially diluted (3×) in neat DMSO and stored in a dessicator at room temperature. 5× compound stocks in 25% DMSO were prepared fresh from neat DMSO stocks.
# (§3) Wild-type (WT) and H1047R mutant protein, along with buffer components (except ATP), were incubated with or without compound at 27° C. for 1 h. After incubation, the reaction was initiated by the addition of 5 uL of 125 uM ATP. A typical assay mixture (25 uL) comprised 40 mM HEPES buffer, pH 7.4, 25 mM MgCl2, 0.01% v/v triton-X-100, 5% v/v DMSO, 20 mM NaCl, 1-5 nM wt or H1047R, 25 uM ATP, and 50 uM PIP2diC8 or PIP2 in membrane. The reaction was allowed to proceed until about […] (2.5 uM ADP) after which time, 10 uL of reaction mixture was quenched with 25 uL of transcreener reagent (Transcreener ADP2 FI assay kit, BellBrook labs, Cat. No. 3013). The contents were incubated at rt for 1 h and fluorescence was measured using a plate reader (Paradigm, Molecular Devices). The same assay was also run at pH 6.0 or 6.4 using MOPS buffer (Fisher BioReagents, CAS 1132-61-2). A calibration curve was generated under identical buffer conditions with varying ADP amounts. Using that, the observed fluorescence was converted to uM ADP. A plot between [ADP] and log[I] yielded the dose-response curves that enabled the calculation of IC50s.
# human full length PIK3CA H1047R mutant (p110α/p85α), sequence (P42336 whole entry H1047R): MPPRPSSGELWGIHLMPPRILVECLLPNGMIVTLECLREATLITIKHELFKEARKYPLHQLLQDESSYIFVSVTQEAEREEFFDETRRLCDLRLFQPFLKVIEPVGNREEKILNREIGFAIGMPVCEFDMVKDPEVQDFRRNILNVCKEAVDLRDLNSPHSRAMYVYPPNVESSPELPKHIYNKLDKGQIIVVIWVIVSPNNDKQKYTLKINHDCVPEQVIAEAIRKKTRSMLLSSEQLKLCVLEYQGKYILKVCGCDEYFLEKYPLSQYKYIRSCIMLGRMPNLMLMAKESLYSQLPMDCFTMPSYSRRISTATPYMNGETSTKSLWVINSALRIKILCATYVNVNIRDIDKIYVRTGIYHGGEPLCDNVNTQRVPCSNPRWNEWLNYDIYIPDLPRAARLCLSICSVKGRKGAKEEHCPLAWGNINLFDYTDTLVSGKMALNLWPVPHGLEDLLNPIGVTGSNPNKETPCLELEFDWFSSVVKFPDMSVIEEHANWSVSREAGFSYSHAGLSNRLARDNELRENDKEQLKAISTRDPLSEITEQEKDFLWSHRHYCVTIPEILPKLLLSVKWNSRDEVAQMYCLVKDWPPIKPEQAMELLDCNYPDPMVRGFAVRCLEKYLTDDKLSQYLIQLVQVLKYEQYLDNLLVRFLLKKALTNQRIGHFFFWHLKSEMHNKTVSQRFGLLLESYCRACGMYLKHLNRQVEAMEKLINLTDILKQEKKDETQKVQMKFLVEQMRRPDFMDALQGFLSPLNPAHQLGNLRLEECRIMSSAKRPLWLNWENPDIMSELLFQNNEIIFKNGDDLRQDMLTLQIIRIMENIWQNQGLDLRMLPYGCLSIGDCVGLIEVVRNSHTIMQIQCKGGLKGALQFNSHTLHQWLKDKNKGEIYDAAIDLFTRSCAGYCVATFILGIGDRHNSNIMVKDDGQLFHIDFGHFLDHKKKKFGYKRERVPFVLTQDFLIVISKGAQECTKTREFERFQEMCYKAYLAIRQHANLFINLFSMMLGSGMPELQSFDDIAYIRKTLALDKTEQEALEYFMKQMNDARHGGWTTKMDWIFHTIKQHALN
# human full length PIK3CA H1047R mutant (p110α/p85α), sequence (P27986 whole entry partner): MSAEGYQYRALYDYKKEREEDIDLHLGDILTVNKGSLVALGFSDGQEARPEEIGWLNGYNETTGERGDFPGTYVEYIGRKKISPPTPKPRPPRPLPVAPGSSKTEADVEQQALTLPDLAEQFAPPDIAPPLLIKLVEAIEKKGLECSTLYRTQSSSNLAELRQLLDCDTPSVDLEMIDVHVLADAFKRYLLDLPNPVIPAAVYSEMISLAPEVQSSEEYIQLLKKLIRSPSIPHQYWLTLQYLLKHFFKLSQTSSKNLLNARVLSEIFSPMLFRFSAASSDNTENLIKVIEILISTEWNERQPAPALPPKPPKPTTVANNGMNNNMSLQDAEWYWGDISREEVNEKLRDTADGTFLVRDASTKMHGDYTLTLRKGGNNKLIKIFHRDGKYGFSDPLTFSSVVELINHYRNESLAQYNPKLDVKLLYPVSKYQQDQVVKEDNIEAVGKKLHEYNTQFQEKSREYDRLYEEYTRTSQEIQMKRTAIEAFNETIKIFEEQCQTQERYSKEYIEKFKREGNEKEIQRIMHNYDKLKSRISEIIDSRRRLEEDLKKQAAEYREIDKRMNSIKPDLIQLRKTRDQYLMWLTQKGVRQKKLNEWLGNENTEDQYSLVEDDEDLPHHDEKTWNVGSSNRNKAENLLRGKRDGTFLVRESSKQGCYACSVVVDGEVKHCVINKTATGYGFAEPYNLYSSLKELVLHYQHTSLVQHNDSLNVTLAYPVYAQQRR
row,SMILES,pIC50
1,"Cc1cc(C(C)Nc2ccccc2C(=O)O)c2oc(N3CCn4cccc4C3)cc(=O)c2c1 (centres unmarked) [Example 171, 2-[1-[2-(3,4-Dihydro-1H-pyrrolo[1,2-a]pyrazin-2-yl)-6-methyl-4-oxo-chromen-8-yl]ethylamino]benzoic acid]",> 6.30
2,"Cc1cc(C(C)Nc2ccccc2C(=O)O)c2oc(N3CC4CC(C4)C3)cc(=O)c2c1 (centres unmarked) [Example 177, 2-[1-[2-(3-Azabicyclo[3.1.1]heptan-3-yl)-6-methyl-4-oxo-chromen-8-yl]ethylamino]benzoic acid 2,2,2-trifluoroacetic acid]",> 6.30
3,"Cc1cc([C@@H](C)Nc2ccccc2C(=O)O)c2oc(N3CCC(C#N)(c4ccccc4)CC3)c(C)c(=O)c2c1 [Example 288, 2-[[(1R)-1-[2-(4-Cyano-4-phenyl-1-piperidyl)-3,6-dimethyl-4-oxo-chromen-8-yl]ethyl]amino]benzoic acid]",> 6.30
4,CC(Nc1ccccc1C(=O)O)c1cc(F)cc2c(=O)cc(N3CCC(F)(F)CC3)oc12 (centres unmarked) [Example 399],> 6.30
5,"CONC(=O)c1ccccc1NC(C)c1cc(C)cc2c(=O)cc(N3CCC(C)(C)CC3)oc12 (centres unmarked) [Example 19, 2-[1-[2-(4,4-Dimethyl-1-piperidyl)-6-methyl-4-oxo-chromen-8-yl]ethylamino]-N-methoxy-benzamide]",> 6.30
6,"CC(Nc1ccccc1C(=O)O)c1cc(C(F)(F)F)cc2c(=O)cc(N3CCC(F)(F)CC3)oc12 (centres unmarked) [Example 396, 2-[1-[2-(4,4-Difluoro-1-piperidyl)-4-oxo-6-(trifluoromethyl)chromen-8-yl]ethylamino]benzoic acid 2,2,2-trifluoroacetic acid]",> 6.30
7,"Cc1cc(C(C)Nc2ccccc2-c2nnn[nH]2)c2oc(N3CCC(C)(C)CC3)cc(=O)c2c1 (centres unmarked) [Example 20, 2-(4,4-Dimethyl-1-piperidyl)-6-methyl-8-[1-[2-(1H-tetrazol-5-yl)anilino]ethyl]chromen-4-one]",> 6.30
8,"Cc1cc(C(C)Nc2ccc(Cl)nc2C(=O)O)c2oc(N3CCC4(CC3)CC4)c(C)c(=O)c2c1 (centres unmarked) [Example 302, 3-[1-[2-(6-Azaspiro[2.5]octan-6-yl)-3,6-dimethyl-4-oxo-chromen-8-yl]ethylamino]-6-chloro-pyridine-2-carboxylic acid]",> 6.30
9,"CCc1c(N2CCC(C)(C)CC2)oc2c(C(C)Nc3ccccc3C(=O)O)cc(C)cc2c1=O (centres unmarked) [Example 55, 2-[1-[2-(4,4-dimethyl-1-piperidyl)-3-ethyl-6-methyl-4-oxo-chromen-8-yl]ethylamino]benzoic acid]",> 6.30
10,"Cc1cc(C(C)Nc2ccc(Cl)nc2C(=O)O)c2oc(N3Cc4ccc(F)cc4C3)cc(=O)c2c1 (centres unmarked) [Example 297, 6-Chloro-3-[1-[2-(5-fluoroisoindolin-2-yl)-6-methyl-4-oxo-chromen-8-yl]ethylamino]pyridine-2-carboxylic acid]",> 6.30
11,"Cc1cc(C(C)Nc2ccccc2C(=O)O)c2oc(N3CCc4ccccc4C3)cc(=O)c2c1 (centres unmarked) [Example 233, 2-[1-[2-(3,4-Dihydro-1H-isoquinolin-2-yl)-6-methyl-4-oxo-chromen-8-yl]ethylamino]benzoic acid]",> 6.30
12,"Cc1cc(C(C)Nc2ccccc2C(=O)O)c2oc(N3Cc4ccc(F)cc4C3)cc(=O)c2c1 (centres unmarked) [Example 105, 2-[1-[2-(5-Fluoroisoindolin-2-yl)-6-methyl-4-oxo-chromen-8-yl]ethylamino]benzoic acid]",> 6.30
13,"Cc1cc(C(C)Nc2sc(Cl)nc2C(=O)O)c2oc(N3Cc4ccccc4C3)cc(=O)c2c1 (centres unmarked) [Example 245, 2-Chloro-5-[1-(2-isoindolin-2-yl-6-methyl-4-oxo-chromen-8-yl)ethylamino]thiazole-4-carboxylic acid 2,2,2-trifluoroacetic acid]",> 6.30
14,"Cc1cc(C(C)Nc2ccccc2C(=O)O)c2oc(N3CC4(CCCCC4)C3)cc(=O)c2c1 (centres unmarked) [Example 88, 2-[1-[2-(2-Azaspiro[3.5]nonan-2-yl)-6-methyl-4-oxo-chromen-8-yl]ethylamino]benzoic acid]",> 6.30
15,"CC(Nc1ccccc1C(=O)O)c1cc(F)cc2c(=O)cc(N3CCC4(CC3)CC4)oc12 (centres unmarked) [Example 398, 2-[1-[2-(6-Azaspiro[2.5]octan-6-yl)-6-fluoro-4-oxo-chromen-8-yl]ethylamino]benzoic acid 2,2,2-trifluoroacetic acid]",> 6.30
16,"Cc1cc(C(C)Nc2ccccc2C(=O)O)c2oc(N3CCCC(C)(C)C3)cc(=O)c2c1 (centres unmarked) [Example 65, 2-[1-[2-(3,3-Dimethyl-1-piperidyl)-6-methyl-4-oxo-chromen-8-yl]ethylamino]benzoic acid]",> 6.30
17,"Cc1cc(C(C)Nc2ccccc2C(=O)O)c2oc(N3CC(C(C)(F)F)C3)cc(=O)c2c1 (stereo not drawn) [Example 189, 2-[1-[2-[3-(1,1-Difluoroethyl)azetidin-l-yl]-6-methyl-4-oxo-chromen-8-yl]ethylamino]benzoic acid 2,2,2-trifluoroacetic acid]",> 6.30
18,"Cc1cc([C@@H](C)Nc2ccccc2C(=O)O)c2oc(N3CCCCC3)cc(=O)c2c1 [Example 376, 2-[[(1R)-1-[6-Methyl-4-oxo-2-(1-piperidyl)chromen-8-yl]ethyl]amino]benzoic acid]",> 6.30
19,"Cc1cc([C@@H](C)Nc2ccccc2C(=O)O)c2oc(N3CC4(CCC4(F)F)C3)c(C)c(=O)c2c1 [Example 289, 2-[[(1R)-1-[2-(7,7-Difluoro-2-azaspiro[3.3]heptan-2-yl)-3,6-dimethyl-4-oxo-chromen-8-yl]ethyl]amino]benzoic acid]",> 6.30
20,"Cc1cc(C(C)Nc2ccc(Cl)nc2C(=O)O)c2oc(N3Cc4ccc5c(c4C3)OCO5)cc(=O)c2c1 (centres unmarked) [Example 299, 6-Chloro-3-[1-[2-(6,8-dihydro-[1,3]dioxolo[4,5-e]isoindol-7-yl)-6-methyl-4-oxo-chromen-8-yl]ethylamino]pyridine-2-carboxylic acid]",> 6.30

# Molecular target: human full length PIK3CA wild-type (p110α/p85α) (Homo sapiens (Human), UniProt P42336)
# Assay: PI3K-alpha kinase (PIK3CA) activity, wild-type, Transcreener ADP2 FI assay
# Settings: PI3K-α (PIK3CA) biochemical
# Experimental: as §1, §2, §3
# human full length PIK3CA wild-type (p110α/p85α), sequence (P42336 whole entry): as the sequence (P42336 whole entry H1047R) above, with R1047H counted along it
# human full length PIK3CA wild-type (p110α/p85α), sequence (P27986 whole entry partner): as the sequence (P27986 whole entry partner) above
row,SMILES,pIC50
1,"COC1CCN(c2cc(=O)c3cc(C)cc(C(C)Nc4ccccc4C(=O)O)c3o2)CC1 (centres unmarked) [Example 373, 2-[1-[2-(4-Methoxy-1-piperidyl)-6-methyl-4-oxo-chromen-8-yl]ethylamino]benzoic acid]",< 5.00
2,"Cc1cc(C(C)Nc2ccccc2C(=O)O)c2oc(N3CC4CCC(C3)O4)cc(=O)c2c1 (centres unmarked) [Example 82, 2-[1-[6-Methyl-2-(8-oxa-3-azabicyclo[3.2.1]octan-3-yl)-4-oxo-chromen-8-yl]ethylamino]benzoic acid]",< 5.00
3,"CNC(=O)C1CCN(c2cc(=O)c3cc(C)cc(C(C)Nc4ccccc4C(=O)O)c3o2)CC1 (centres unmarked) [Example 371, 2-[1-[6-Methyl-2-[4-(methylcarbamoyl)-1-piperidyl]-4-oxo-chromen-8-yl]ethylamino]benzoic acid]",< 5.00
4,"Cc1cc(C(C)Nc2ccccc2C(=O)O)c2oc(N3CC(N(C)C)C3)cc(=O)c2c1 (centres unmarked) [Example 68, 2-[1-[2-[3-(Dimethylamino)azetidin-1-yl]-6-methyl-4-oxo-chromen-8-yl]ethylamino]benzoic acid]",< 5.00
5,"Cc1cc(C(C)Nc2ccccc2C(=O)O)c2oc(N3CCn4cnnc4C3)cc(=O)c2c1 (centres unmarked) [Example 163, 2-[1-[2-(6,8-Dihydro-5H-[1,2,4]triazolo[4,3-a]pyrazin-7-yl)-6-methyl-4-oxo-chromen-8-yl]ethylamino]benzoic acid]",< 5.00
6,"Cc1cc(C(C)Nc2ccccc2C(=O)O)c2oc(N3CCC4(CC3)CN(C)C(=O)O4)cc(=O)c2c1 (centres unmarked) [Example 380, 2-[1-[6-Methyl-2-(3-methyl-2-oxo-1-oxa-3,8-diazaspiro[4.5]decan-8-yl)-4-oxo-chromen-8-yl]ethylamino]benzoic acid]",< 5.00
